Source: EP1388586A2, “Identification of broadly reactive DR restricted epitopes” (priority 1998, dated 1999)
Ends that are not written are not given here.

target: T1, DRB1*0301 (DR3w17) (Homo sapiens, UniProt P01903+P01911, A100K/A102G/A103R/A169T/F55Y/I96L/K41T/L162R/M171V/P40S/Q125H/Q178H/Q39Y/R42S/S66N/T106N/T262R/W38E/Y61H); assay: Class II peptide-binding assay, DR3 (pH 4.5); details: Table VIII, page 2; pH 4.5; read-out: In IC50 Format DR3;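 note: unlabeled peptide competing with a radiolabeled probe peptide for binding to affinity-purified HLA-DR3, IC50 regarded as an approximation of Kd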
T1 construct: used as sources of human HLA class II molecules; endogenous in cells; host or cells: MAT (EBV-transformed homozygous B cell line)
T1 sequence (P01903 26-254, other chains not shown): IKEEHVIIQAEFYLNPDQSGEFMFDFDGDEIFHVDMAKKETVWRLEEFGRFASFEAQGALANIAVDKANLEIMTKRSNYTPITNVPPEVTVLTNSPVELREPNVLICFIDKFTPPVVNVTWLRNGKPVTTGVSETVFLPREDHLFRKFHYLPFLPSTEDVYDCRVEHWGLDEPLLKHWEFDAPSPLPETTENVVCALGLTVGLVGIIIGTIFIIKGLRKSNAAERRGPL

Row | IC50 [µM] | Molecule
1 | 2.31 | CC[C@H](C)[C@H](NC(=O)[C@@H](NC(=O)[C@H](Cc1c[nH]cn1)NC(=O)[C@@H](N)CC(C)C)C(C)C)C(=O)N[C@@H](CCCCN)C(=O)N[C@@H](CO)C(=O)N[C@@H](CC(=O)O)C(=O)N[C@@H](CC(C)C)C(=O)N[C@H](C(=O)N[C@@H](CC(N)=O)C(=O)N[C@@H](CCC(=O)O)C(=O)N[C@@H](CCC(=O)O)C(=O)N[C@@H](C)C(=O)N[C@H](C(=O)NCC(=O)O)[C@@H](C)O)C(C)C [Peptide 39.0314]
2 | 0.938 | CC[C@H](C)[C@H](NC(=O)[C@H](CC(N)=O)NC(=O)[C@@H](N)CCC(N)=O)C(=O)N[C@H](C(=O)N[C@@H](CCC(N)=O)C(=O)N[C@@H](CC(N)=O)C(=O)N[C@@H](CC(=O)O)C(=O)N[C@H](C(=O)NCC(=O)N[C@@H](Cc1ccccc1)C(=O)N[C@@H](Cc1ccc(O)cc1)C(=O)N[C@H](C(=O)N[C@@H](CC(C)C)C(=O)N[C@@H](Cc1c[nH]cn1)C(=O)N[C@H](C(=O)O)C(C)C)[C@@H](C)O)[C@@H](C)O)[C@@H](C)CC [Peptide 39.0313]

same assay, conditions: Table VIII; values in parentheses read as lower bounds; read-out: In IC50 Format DR3

Row | IC50 [µM] | Molecule
3 | 4.23 | CSCC[C@H](NC(=O)[C@H](CCCNC(=N)N)NC(=O)[C@H](CO)NC(=O)[C@H](Cc1ccccc1)NC(=O)[C@H](CCC(=O)O)NC(=O)[C@H](CO)NC(=O)[C@@H](NC(=O)[C@H](CC(C)C)NC(=O)[C@H](CCC(=O)O)NC(=O)[C@H](CCCNC(=N)N)NC(=O)[C@@H](N)Cc1ccccc1)C(C)C)C(=O)N[C@@H](C)C(=O)N[C@@H](CCCNC(=N)N)C(=O)N[C@@H](CC(=O)O)C(=O)N1CCC[C@H]1C(=O)O [Peptide 39.0370]
4 | 5.77 | SLSFLQDIQEVQGYV [Peptide 39.0339]

same assay, conditions: read-out: In IC50 Format DR3 nM; Table VIII; values in parentheses read as lower bounds

Row | IC50 [µM] | Molecule
5 | > 111 | ETEYHADGGKVPIKW [Peptide 39.0367]
6 | 66.7 | QGFFCPDPAPGAGGM [Peptide 39.0376]
7 | 41.7 | CC[C@H](C)[C@H](NC(=O)CNC(=O)[C@H](Cc1ccccc1)NC(=O)[C@@H](NC(=O)[C@H](CC(C)C)NC(=O)[C@@H](N)CCC(N)=O)C(C)C)C(=O)N[C@@H](CCC(=O)O)C(=O)N[C@H](C(=O)N[C@H](C(=O)N[C@@H](CCC(=O)O)C(=O)N[C@H](C(=O)N[C@H](C(=O)N1CCC[C@H]1C(=O)N[C@H](C(=O)N[C@@H](CO)C(=O)O)[C@@H](C)CC)C(C)C)C(C)C)C(C)C)C(C)C [Peptide 39.0389]
8 | > 120 | DNLYYWDQDPPERGA [Peptide 39.0383]
9 | > 120 | DLTLGLEPSEEEAPR [Peptide 39.0377]
10 | 40 | AIKVLRENTSPKANK [Peptide 39.0362]
11 | > 120 | TVPLPSETDGYVAPL [Peptide 39.0380]
12 | > 120 | FVVIQNEDLGPASPL [Peptide 39.0372]
13 | > 111 | NQEVTAEDGTQRCEK [Peptide 39.0347]
14 | 12 | GDLVDAEEYLVPQQG [Peptide 39.0375]
15 | > 111 | DTILWKDIFHKNNQL [Peptide 39.0342]
16 | 13.6 | CC(C)C[C@H](NC(=O)[C@H](CCC(N)=O)NC(=O)[C@H](CC(=O)O)NC(=O)[C@H](Cc1c[nH]c2ccccc12)NC(=O)[C@@H]1CCCN1C(=O)[C@@H](NC(=O)[C@@H](NC(=O)[C@H](Cc1c[nH]cn1)NC(=O)[C@@H](N)C(C)C)[C@@H](C)O)C(C)C)C(=O)N[C@@H](Cc1ccccc1)C(=O)N[C@@H](CCCNC(=N)N)C(=O)N[C@@H](CC(N)=O)C(=O)N1CCC[C@H]1C(=O)N[C@@H](Cc1c[nH]cn1)C(=O)N[C@@H](CCC(N)=O)C(=O)O [Peptide 39.0353]
17 | > 111 | MRRLLQETELVEPLT [Peptide 39.0360]
18 | > 120 | C[C@H](NC(=O)CNC(=O)CNC(=O)[C@@H](N)CCC(N)=O)C(=O)N[C@@H](C)C(=O)N1CCC[C@H]1C(=O)N[C@@H](CCC(N)=O)C(=O)N1CCC[C@H]1C(=O)N[C@@H](Cc1c[nH]cn1)C(=O)N1CCC[C@H]1C(=O)N1CCC[C@H]1C(=O)N1CCC[C@H]1C(=O)N[C@@H](C)C(=O)N[C@@H](Cc1ccccc1)C(=O)N[C@@H](CO)C(=O)O [Peptide 39.0382]
19 | 37.5 | CSCC[C@H](NC(=O)[C@H](CC(=O)O)NC(=O)[C@H](CC(=O)O)NC(=O)[C@H](CC(=O)O)NC(=O)[C@H](CCC(=O)O)NC(=O)[C@H](CC(C)C)NC(=O)[C@H](CC(C)C)NC(=O)[C@H](CO)NC(=O)[C@@H](N)CCCNC(=N)N)C(=O)NCC(=O)N[C@@H](CC(=O)O)C(=O)N[C@@H](CC(C)C)C(=O)N[C@H](C(=O)N[C@@H](CC(=O)O)C(=O)N[C@@H](C)C(=O)O)C(C)C [Peptide 39.0374]
20 | 130 | CC(C)C[C@H](NC(=O)[C@@H](NC(=O)[C@H](CCC(=O)O)NC(=O)[C@H](Cc1ccccc1)NC(=O)[C@@H](NC(=O)[C@H](CCC(N)=O)NC(=O)[C@H](CC(C)C)NC(=O)[C@H](CCC(N)=O)NC(=O)[C@H](CCC(=O)O)NC(=O)[C@@H]1CCCN1C(=O)[C@H](CCC(N)=O)NC(=O)[C@H](CC(C)C)NC(=O)[C@@H]1CCCN1C(=O)[C@H](C)NC(=O)[C@@H](N)[C@@H](C)O)C(C)C)[C@@H](C)O)C(=O)O [Peptide 39.0351]
21 | 63.8 | NKEILDEAYVMAGVG [Peptide 39.0363]

same assay, conditions: read-out: In IC50 Format DR3; Table VIII

Row | IC50 [µM] | Molecule
22 | > 120 | CC[C@H](C)[C@H](NC(=O)[C@H](C)NC(=O)[C@@H](N)CCSC)C(=O)N[C@@H](Cc1ccc(O)cc1)C(=O)N[C@@H](CCCCN)C(=O)N[C@@H](CCC(N)=O)C(=O)N[C@@H](CO)C(=O)N[C@@H](CCC(N)=O)C(=O)N[C@@H](Cc1c[nH]cn1)C(=O)N[C@@H](CCSC)C(=O)N[C@H](C(=O)N[C@@H](CCC(=O)O)C(=O)N[C@H](C(=O)N[C@H](C(=O)N[C@@H](CCCNC(=N)N)C(=O)O)C(C)C)C(C)C)[C@@H](C)O [Peptide 39.0414]
23 | 100 | CC[C@H](C)[C@H](NC(=O)[C@@H](NC(=O)[C@@H](N)CC(C)C)[C@@H](C)O)C(=O)N[C@H](C(=O)N[C@H](C(=O)N[C@@H](CC(C)C)C(=O)N[C@@H](CCC(=O)O)C(=O)N[C@@H](CC(=O)O)C(=O)N[C@@H](CO)C(=O)N[C@@H](CO)C(=O)NCC(=O)N[C@@H](CC(N)=O)C(=O)N[C@@H](CC(C)C)C(=O)N[C@@H](CC(C)C)C(=O)NCC(=O)O)[C@@H](C)O)[C@@H](C)CC [Peptide 39.0421]
24 | 76.9 | CC(C)C[C@H](NC(=O)[C@H](CC(N)=O)NC(=O)CNC(=O)[C@@H](N)CCC(=O)O)C(=O)N[C@@H](CCCNC(=N)N)C(=O)N[C@H](C(=O)N[C@@H](CCC(=O)O)C(=O)N[C@@H](Cc1ccc(O)cc1)C(=O)N[C@@H](CC(C)C)C(=O)N[C@@H](CC(=O)O)C(=O)N[C@@H](CC(=O)O)C(=O)N[C@@H](CCCNC(=N)N)C(=O)N[C@@H](CC(N)=O)C(=O)N[C@H](C(=O)N[C@@H](Cc1ccccc1)C(=O)O)[C@@H](C)O)C(C)C [Peptide 39.0417]
25 | > 120 | C[C@H](NC(=O)[C@H](CCC(=O)O)NC(=O)[C@H](CC(=O)O)NC(=O)[C@@H]1CCCN1C(=O)CNC(=O)[C@@H]1CCCN1C(=O)[C@H](CC(=O)O)NC(=O)[C@H](CCC(=O)O)NC(=O)[C@@H](NC(=O)[C@H](Cc1ccccc1)NC(=O)[C@H](Cc1c[nH]c2ccccc12)NC(=O)[C@H](CCC(N)=O)NC(=O)[C@@H](N)CCC(=O)O)[C@@H](C)O)C(=O)N1CCC[C@H]1C(=O)N[C@@H](CCCNC(=N)N)C(=O)O [Peptide 39.0412]
26 | 20 | CC[C@H](C)[C@H](NC(=O)[C@H](CC(=O)O)NC(=O)[C@H](CC(=O)O)NC(=O)[C@@H]1CCCN1C(=O)[C@H](CO)NC(=O)[C@H](CC(C)C)NC(=O)[C@H](CCSC)NC(=O)[C@H](CC(C)C)NC(=O)[C@@H](N)CC(=O)O)C(=O)N[C@@H](CCC(=O)O)C(=O)N[C@@H](CCC(N)=O)C(=O)N[C@@H](Cc1c[nH]c2ccccc12)C(=O)N[C@@H](Cc1ccccc1)C(=O)N[C@H](C(=O)N[C@@H](CCC(=O)O)C(=O)O)[C@@H](C)O [Peptide 39.0411]
